Assay results: patent US9255100B2 (BAYER INTELLECTUAL PROPERTY GMBH, priority 2010, dated 2016)

What was measured:
[1] = system: Hepatocytes from Han Wistar rats; assay: In vitro metabolic stability in rat hepatocytes (calculation of hepatic in vivo blood clearance and Fmax); format: in vitro ADME; details: for Fmax [%]: maximal oral bioavailability calculated from half-life in rat hepatocytes, 1 μM test compound
Method: Investigation of In Vitro Metabolic Stability in Rat Hepatocytes (Including Calculation of Hepatic In Vivo Blood Clearance (CL))
Hepatocytes from Han Wistar rats were isolated via a 2-step perfusion method. After perfusion, the liver was carefully removed from the rat: the liver capsule was opened and the hepatocytes were gently shaken out into a Petri dish with ice-cold WME. The resulting cell suspension was filtered through sterile gaze in 50 ml falcon tubes and centrifuged at 50×g for 3 min at room temperature. The cell pellet was resuspended in 30 ml WME and centrifuged through a Percoll® gradient for 2 times at 100×g. The hepatocytes were washed again with Williams' medium E (WME) and resuspended in medium containing 5% FCS. Cell viability was determined by trypan blue exclusion.
For the metabolic stability assay liver cells were distributed in WME containing 5% FCS to glass vials at a density of 1.0×10^6 vital cells/ml. The test compound was added to a final concentration of 1 μM. During incubation, the hepatocyte suspensions were continuously shaken and aliquots were taken at 2, 8, 16, 30, 45 and 90 min, to which equal volumes of cold methanol were immediately added. Samples were frozen at −20° C. over night, after subsequently centrifuged for 15 minutes at 3000 rpm and the supernatant was analyzed with an Agilent 1200 HPLC-system with LCMS/MS detection.
The half-life of a test compound was determined from the concentration-time plot. From the half-life the intrinsic clearances were calculated. Together with the additional parameters liver blood flow, amount of liver cells in vivo and in vitro. The hepatic in vivo blood clearance (CL) and the maximal oral bioavailability (Fmax) was calculated. The following parameter values were used: Liver blood flow—4.2 L/h/kg rat; specific liver weight—32 g/kg rat body weight; liver cells in vivo—1.1×10^8 cells/g liver, liver cells in vitro—0.5×10^6/ml.

[2] = target: T1, N-terminally GST-tagged human full length recombinant Mps-1 kinase (Homo sapiens, UniProt P33981); assay: Mps-1 kinase assay (TR-FRET); format: biochemical; details: Mps1 IC50 [nM], 10 μM ATP, 1 μM peptide substrate, 60 min at 22° C.
T1 construct: N-terminally GST-tagged human full length recombinant Mps-1 kinase; purchased Invitrogen, Karslruhe, Germany PV4071
T1 sequence (P33981 1-857): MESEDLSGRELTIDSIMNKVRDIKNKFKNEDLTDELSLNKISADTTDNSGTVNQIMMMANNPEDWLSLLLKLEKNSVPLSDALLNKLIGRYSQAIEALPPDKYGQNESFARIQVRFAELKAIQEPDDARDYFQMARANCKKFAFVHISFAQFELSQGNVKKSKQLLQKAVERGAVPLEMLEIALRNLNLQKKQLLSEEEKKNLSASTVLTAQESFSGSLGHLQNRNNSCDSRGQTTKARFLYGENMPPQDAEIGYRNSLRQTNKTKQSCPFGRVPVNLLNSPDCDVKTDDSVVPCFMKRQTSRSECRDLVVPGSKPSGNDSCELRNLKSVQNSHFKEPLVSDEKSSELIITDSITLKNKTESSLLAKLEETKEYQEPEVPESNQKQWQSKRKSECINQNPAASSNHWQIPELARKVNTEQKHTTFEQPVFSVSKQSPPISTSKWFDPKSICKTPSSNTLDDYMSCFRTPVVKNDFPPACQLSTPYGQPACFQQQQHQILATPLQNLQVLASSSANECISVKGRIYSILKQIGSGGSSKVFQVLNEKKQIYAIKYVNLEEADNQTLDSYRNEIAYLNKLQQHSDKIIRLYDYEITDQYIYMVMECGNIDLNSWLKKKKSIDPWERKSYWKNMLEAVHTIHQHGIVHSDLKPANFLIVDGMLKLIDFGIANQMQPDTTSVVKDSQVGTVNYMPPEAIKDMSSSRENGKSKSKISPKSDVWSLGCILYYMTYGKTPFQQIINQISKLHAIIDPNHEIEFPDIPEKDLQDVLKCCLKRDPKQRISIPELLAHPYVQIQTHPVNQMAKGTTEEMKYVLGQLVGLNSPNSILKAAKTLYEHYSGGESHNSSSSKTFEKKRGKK
Summary of the method: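 Read-out: TR-FRET from Europium-labelled anti-phospho(Ser/Thr) antibody to SA-XLent after 1 h detection incubation at 22° C. Inhibition of kinase activity measured.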

| SMILES | Fmax [%] [1] | IC50 [2] | increase of metabolic stability ([1]; relative increase of Fmax (rat hepatocytes) against the comparison compound of the same table) |
| --- | --- | --- | --- |
| Cc1cc(-c2cnc3c(NCCC(F)(F)F)cc(Oc4cccc(F)c4)nn23)ccc1C(=O)NC1(C)CC1 [Example 461, 4-{6-(3-fluorophenoxy)-8-[(3,3,3-trifluoropropyl)amino]imidazo[1,2-b]pyridazin-3-yl}-2-methyl-N-(1-methylcyclopropyl)benzamide] | 75% | 0.2 nM | – |
| Cc1cc(-c2cnc3c(NCCN4CCOCC4)cc(Oc4cccc(F)c4F)nn23)ccc1C(=O)NC1CC1 [Example 536, N-cyclopropyl-4-[6-(2,3-difluorophenoxy)-8-{[2-(morpholin-4-yl)ethyl]amino}imidazo[1,2-b]pyridazin-3-yl]-2-methylbenzamide] | 37% | 0.3 nM | – |
| Cc1cc(-c2cnc3c(NCC4CCOCC4)cc(Oc4cccc(F)c4)nn23)ccc1C(=O)NC1CC1 [Example 323, N-cyclopropyl-4-{6-(3-fluorophenoxy)-8-[(tetra-hydro-2H-pyran-4-yl-methyl)amino]imidazo[1,2-b]pyridazin-3-yl}-2-methylbenzamide] | 31% | 0.2 nM | – |
| COc1ccc(Oc2cc(NCC3CCOCC3)c3ncc(-c4ccc(C(=O)NC5CC5)cc4)n3n2)c(F)c1 [Example 444, N-cyclopropyl-4-{6-(2-fluoro-4-methoxyphenoxy)-8-[(tetrahydro-2H-pyran-4-ylmethyl)amino]imidazo[1,2-b]pyridazin-3-yl}benzamide] | 22% | – | – |
| Cc1cc(-c2cnc3c(NCCC(F)(F)F)cc(Oc4cccc(F)c4)nn23)ccc1C(=O)NC1CC1 [Example 80, N-cyclopropyl-4-{6-(3-fluorophenoxy)-8-[(3,3,3-trifluoropropyl)amino]imidazo[1,2-b]pyridazin-3-yl}-2-methylbenzamide] | 56% | 0.2 nM | 81% |
| Cc1cc(-c2cnc3c(NCCS(C)(=O)=O)cc(Oc4cccc(F)c4F)nn23)ccc1C(=O)NC1CC1 [Example 516, N-cyclopropyl-4-[6-(2,3-difluorophenoxy)-8-{[2-(methylsulfonyl)ethyl]amino}imidazo[1,2-b]pyridazin-3-yl]-2-methylbenzamide] | 69% | 0.3 nM | – |
| O=C(NC1CC1)c1ccc(-c2cnc3c(NCCC(F)(F)F)cc(Oc4cccc(F)c4)nn23)cc1 [Example 463, N-cyclopropyl-4-{6-(3-fluorophenoxy)-8-[(3,3,3-trifluoropropyl)amino]imidazo[1,2-b]pyridazin-3-yl}benzamide] | 7% | – | – |
| COc1ccc(Oc2cc(NCC3CCOCC3)c3ncc(-c4ccc(C(=O)NC5CC5)c(C)c4)n3n2)c(F)c1 [Example 445, N-cyclopropyl-4-{6-(2-fluoro-4-methoxyphenoxy)-8-[(tetrahydro-2H-pyran-4-ylmethyl)amino]imidazo[1,2-b]pyridazin-3-yl}-2-methylbenzamide] | 61% | 0.2 nM | – |
| Cc1cc(F)cc(Oc2cc(NCCCC(F)(F)F)c3ncc(-c4ccc(C(=O)NC5CC5)c(C)c4)n3n2)c1 [Example 452, N-cyclopropyl-4-{6-(3-fluoro-5-methylphenoxy)-8-[(4,4,4-trifluorobutyl)amino]imidazo[1,2-b]pyridazin-3-yl}-2-methylbenzamide] | – | 0.8 nM | – |
| Cc1cc(-c2cnc3c(NCc4cc[nH]n4)cc(Oc4cccc(F)c4)nn23)ccc1C(=O)NC1CC1 [Example 489, N-cyclopropyl-4-{6-(3-fluoro-phenoxy)-8-[(1H-pyrazol-3-ylmethyl)amino]imidazo [1,2-b]pyridazin-3-yl}-2-methylbenzamide] | – | 0.2 nM | – |
| Cc1cc(-c2cnc3c(NCCC(F)(F)F)cc(Nc4cccc(F)c4)nn23)ccc1C(=O)NC1CC1 [Example 324, N-cyclopropyl-4-{6-[(3-fluorophenyl)amino]-8-[(3,3,3-trifluoropropyl)amino]imidazo[1,2-b]pyridazin-3-yl}-2-methyl-benzamide] | – | 0.3 nM | – |
| CCNC(=O)c1ccc(-c2cnc3c(NCCC(F)(F)F)cc(Oc4cccc(F)c4)nn23)cc1C [Example 552, N-ethyl-4-{6-(3-fluorophenoxy)-8-[(3,3,3-trifluoropropyl)amino]imidazo[1,2-b]pyridazin-3-yl}-2-methylbenzamide] | – | 0.2 nM | – |

Further compounds by falling IC50 [2], results first:

| Fmax [%] [1] | IC50 [2] | increase of metabolic stability ([1]; relative increase of Fmax (rat hepatocytes) against the comparison compound of the same table) | SMILES |
| --- | --- | --- | --- |
| 40% | 0.1 nM | – | Cc1cc(-c2cnc3c(NCCN4CCOCC4)cc(Oc4cccc(F)c4)nn23)ccc1C(=O)NC1CC1 [Example 500, N-cyclopropyl-4-[6-(3-fluoro-phenoxy)-8-{[2-(morpholin-4-yl)ethyl]amino}imidazo[1,2-b]pyridazin-3-yl]-2-methylbenzamide] |
| 55% | 0.1 nM | – | Cc1ccc(F)cc1Oc1cc(NCCC(F)(F)F)c2ncc(-c3ccc(C(=O)NC4CC4)c(C)c3)n2n1 [Example 390, N-cyclopropyl-4-{6-(5-fluoro-2-methylphenoxy)-8-[(3,3,3-trifluoropropyl)amino]imidazo[1,2-b]pyridazin-3-yl}-2-methylbenzamide] |
| 47% | 0.1 nM | – | Cc1ccc(F)cc1Oc1cc(NCC(C)(C)O)c2ncc(-c3ccc(C(=O)NC4CC4)c(C)c3)n2n1 [Example 391, N-cyclopropyl-4-{6-(5-fluoro-2-methylphenoxy)-8-[(2-hydroxy-2-methylpropyl)amino]imidazo[1,2-b]pyridazin-3-yl}-2-methylbenzamide] |
| 42% | 0.1 nM | – | COCCNc1cc(Oc2cccc(F)c2)nn2c(-c3ccc(C(=O)NC4CC4)c(C)c3)cnc12 [Example 492, N-cyclopropyl-4-{6-(3-fluoro-phenoxy)-8-[(2-methoxyethyl)amino]imidazo[1,2-b]pyridazin-3-yl}-2-methylbenzamide] |
| 39% | 0.1 nM | – | CNc1cc(Oc2cccc(F)c2)nn2c(-c3ccc(C(=O)NC4CC4)c(C)c3)cnc12 [Example 510, N-cyclopropyl-4-[6-(3-fluoro-phenoxy)-8-(methylamino)imidazo[1,2-b]pyridazin-3-yl]-2-methylbenzamide] |
| 50% | 0.1 nM | – | Cc1cc(-c2cnc3c(NCC4CCN(C)CC4)cc(Oc4cccc(F)c4F)nn23)ccc1C(=O)NC1CC1 [Example 526, N-cyclopropyl-4-[6-(2,3-difluorophenoxy)-8-{[(1-methylpiperidin-4-yl)-methyl]amino}imidazo[1,2-b]pyridazin-3-yl]-2-methylbenzamide] |
